# Source: BindingDB's records for doi:10.1016/j.bmcl.2005.04.054 (Schering-Plough Research Institute, 2005)
# Assay: Inhibitory concentration against BaF3 cell line expressed recombinant human CCR3 using the chemotaxis assay
compound,measurement,value
"O=C(NCC1CCCN(C2CCN(Cc3ccc(Cl)c(Cl)c3)CC2)C1)c1ccc2ncccc2c1 (stereo unspecified) [Quinoline-6-carboxylic acid [1'-(3,4-dichloro-benzyl)-[1,4']bipiperidinyl-3-ylmethyl]-amide]",IC50,136 nM
